What all share (test): NCI tumour cell line growth inhibition, 48 h
Assay [1] relates to SR leukemia.
For assay [2], the system named is HCT-116 colon.
The test system of assay [3] is A498 renal.
For assay [4], the system named is RXF 393 renal.
Assay [5] deals with BT-549 breast.
The test system of assay [6] is SN12C renal.
For assay [7], the system named is NCI-H226 lung.
For assay [8], the system named is MDA-MB-231 breast.
In assay [9] the test system is HOP-92 NSCLC.
In assay [10] the test system is DU-145 prostate.

The structures appear in SMILES notation.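 All cell lines were grown in 96-well plates and treated with compound for 48 hours. The concentration for 50% growth inhibition is given as GI50. Definition used: TGI = concentration required for complete inhibition of growth.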 Where only a bound is given, the exact number is not on record here.

Consider `O=C(CCN1CCN(c2cnc3ccccc3n2)CC1)c1csc2ccccc12`, for which the GI50 in [1] is 36.1 µM; in [2], 36.2 µM; in [3] it was 47.4 µM; in [4], 18.7 µM; in assay [5], 14.9 µM; in [6], 79.6 µM. Besides, the GI50 is 35.7 µM in assay [7], 26 µM in assay [8], 18.9 µM in assay [9] and 29.5 µM in assay [10]. Moreover, the TGI in assay [1] is above 100 µM; in assay [2], above 100 µM; in assay [3] it was above 100 µM; in [4] it was 49.5 µM; in assay [5], 30 µM; in [6], above 100 µM. Moreover, the TGI in assay [7] was above 100 µM; in assay [8] it was 63 µM; in assay [9], 49.1 µM; in [10] it was above 100 µM.

Turning to `CN(C)CC(=O)N1CCC(c2ccc(NC(=O)c3ncc(C#N)[nH]3)c(C3=CCCCC3)c2)CC1`, the GI50 in assay [1] was 2.58 µM; in assay [2], 3.97 µM; in assay [3] it was 9.71 µM; in assay [4], 3.25 µM; in assay [5], 4.52 µM; in [6] it was 2.74 µM. The GI50 was 11.3 µM in assay [7], 8.31 µM in [8], 0.21 µM in [9] and 12 µM in assay [10]. For the same compound, the TGI in assay [1] came to 6.52 µM; in [2], 14.1 µM; in assay [3], 22.4 µM; in [4], 14.2 µM; in assay [5], 16.1 µM; in assay [6], 16.9 µM. The TGI in assay [7] worked out at 24.2 µM; in assay [8], 23.2 µM; in assay [9], 2.74 µM; in assay [10], 24.6 µM.

Turning to `Brc1cccc(-c2cc(-c3ccc4c(c3)OCCO4)[nH]n2)c1`, the GI50 in assay [1] was 0.581 µM; in assay [2] it was 1.13 µM; in assay [3], 0.563 µM; in [4], 1.77 µM; in [5], 1.62 µM; in [6], 1.47 µM. The GI50 in assay [7] is 12.1 µM; in assay [8], 3.65 µM; in assay [9] it was 4.31 µM; in assay [10], 1.98 µM. Moreover, the TGI in [1] turned out to be 136 µM; in assay [2] it was 29.4 µM; in assay [3] it was 3.89 µM; in assay [4] it was 25.7 µM; in [5] it was 47.8 µM; in [6], 36.8 µM. The TGI turned out to be 60.9 µM in assay [7], 32.7 µM in assay [8], 32.9 µM in [9] and 27 µM in assay [10].

As to `Cc1ccn2c3c(c(C(=O)O)c2c1)C(=O)c1ccccc1C3=O`, the GI50 in assay [1] is above 30.5 µM; in [2], above 48.3 µM; in [3], 5.01 µM; in assay [4], 10.4 µM; in assay [5] it was 3.9 µM; in assay [6], 7.97 µM. Moreover, the GI50 in assay [7] was 2.46 µM; in assay [8], 11.8 µM; in [9], above 100 µM; in assay [10] it was 1.68 µM. In addition, the TGI was above 100 µM in assay [1]; above 100 µM in [2]; 40.5 µM in assay [3]; above 100 µM in assay [4]; 53.6 µM in assay [5]; above 100 µM in [6]. For the same compound, the TGI was 17.4 µM in assay [7], above 100 µM in [8], above 100 µM in assay [9] and 3.18 µM in assay [10].

For the origin of these results see PubChem BioAssay (NCI).
